Assay results as given in patent publication US20200270232A1, “INHIBITORS OF INTEGRATED STRESS RESPONSE PATHWAY” (Praxis Biotech LLC, priority 2019, published 2020).

Assays:
ATF4 = ATF4 expression inhibition assay (ATF4 luciferase reporter); type: cell-based; details: Homo sapiens, HEK-293T; HEK293T cells carrying the ATF4 luciferase reporter, 100 nM thapsigargin (Tg), 3 hours; read-out: ATF4 inhbition IC50
Procedure: The ATF4 reporter was prepared by fusing the human full length 5′UTR of ATF4 (NCBI Accession No. BC022088.2) upstream of the firefly luciferase coding sequence lacking the initiator methionine. The fused sequence was cloned into pLenti-EF1a-C-Myc-DDK-IRES-Puro cloning vector (Origen # PS 100085) using standard methods. Virus production was carried out by using Lenti-X™ Packaging Single Shots Protocol (Clonetech #631276). Viral particles were used to transduce HEK293T cells (ATCC # CRL-3216, ATCC Manassas, Va.), which were subsequently selected with puromycin to generate stable cell line. Cells were maintained at 37° C. and 5% CO2 in DMEM-F12 (Hyclone # SH30023.02) supplemented with 10% heat-inactivated fetal bovine serum (Gibco #16000-044), 2 mM L-glutamine (Gibco #25030-081), 100 U/ml penicillin, and 100 μg/ml streptomycin (Gibco #15140-122).
HEK293T cells carrying the ATF4 luciferase reporter were plated on 96-well plates (Nunc) at 10,000 cells per well. Cells were treated two days after seeding with 100 nM thapsigargin (Tg) (Sigma-Aldrich # T9033) in the presence of different concentrations of selected compounds ranging from 1 nM to 10 μM. Cells without treatment or cells treated with Tg alone were used as controls. Assay plates containing cells were incubated for 3 hours at 37° C.
Luciferase reactions were performed using Luciferase Assay System (Promega # E1501) as specified by the manufacturer. Luminescence was read with an integration time of 1 s and a gain of 110 using a Cytation-5 multi-mode microplate reader (BioTek). Relative luminescence units were normalized to Tg treatment (0% inhibition) and untreated cells (100% inhibition) and the percentage of ATF4 inhibition was calculated.
Accordingly, inhibition of ATF4 expression as a result of the test compound indicates suppression of the ISR pathway.

[1] = tested on: Chinese hamster ovary (CHO) cells; assay: Protein translation assay (puromycin labelling, western blot); type: cell-based; details: 2 hours, media alone = 100%; for activity at 1 µM: Cricetulus griseus, unstressed CHO cells (without Tg), 1 μM test compound, read-out: % Protein synthesis relative to untreated (1 μM test compound); for % Recovery of protein synthesis (1 μM test compound): stressed CHO cells, 300 nM Tg, Tg alone = 0%
Procedure: Chinese hamster ovary (CHO) cells were maintained at 37° C. and 5% C02 in Dulbecco's Modified Eagle's Media (DMEM) supplemented with 10% fetal bovine serum, 2 mM L-glutamine, 100 U/ml penicillin, and 100 μg/ml streptomycin. After reaching 80% of confluence, cells were detached and seeded on 6 well plates in complete media, allowed to recover overnight and treated for 2 hours with 1 μM of the test compound (to assess protein synthesis levels in unstressed condition), or for 2 hours with 300 nM Tg in the presence of 1 μM of the test compound (to assess the recovery of protein synthesis in a stressed condition). Cells with Tg alone were used as controls.
After the 2 hours treatments, media were replaced by adding 10 μg/ml puromycin (Sigma Aldrich # P8833) in complete media for 30 min. Media were removed and cells were lysed with SDS-PAGE lysis buffer. Lysates were transferred to 1.5 ml tubes and sonicated for 3 min and total protein amount were quantified using BCA Protein Assay Kit (Pierce). Equal amount of protein (30 μg) was loaded on SDS-PAGE gels. Proteins were transferred onto 0.2 μm PVDF membranes (BioRad) and probed with primary antibodies diluted in Tris-buffered saline supplemented with 0.1% Tween 20 (Merck # S6996184 505) and 3% bovine serum albumin (Rockland # BSA-50).
Puromycin (12D10) (Merck # MABE343) and β-actin (Sigma Aldrich # A5441) antibodies were used as primary antibody. A HRP-conjugated secondary antibody (Rockland) was employed to detect immune-reactive bands using enhanced chemiluminescence (ECL Western Blotting Substrate, Pierce). Quantification of protein bands was done by densitometry using ImageJ software.
Percent increase of protein synthesis in unstressed cells (without Tg treatment) in the presence of media alone or certain test compounds is shown in Table 3. The percentage levels were normalized to the media alone condition, which correspond to 100% protein synthesis.
Percent recovery of protein synthesis in stressed cells (with Tg treatment) due to the test compounds at 1 μM is also shown in Table 3. The levels were normalized to the media alone and Tg alone conditions, which correspond to 100% and 0% respectively.

SMILES | IC50 (ATF4) [µM] | activity at 1 µM [1] [%] | % Recovery of protein synthesis (1 μM test compound) [1] [%]
O=C(COc1ccc(Cl)c(F)c1)NCC1CCN(C(=O)c2cc3cc(Cl)ccc3o2)C1 (centres unmarked) [Compound 6, 2-(4-chloro-3-fluorophenoxy)-N-((1-(5-chlorobenzofuran-2-carbonyl)pyrrolidin-3-yl)methyl)acetamide] | > 0.1 | 81.2 | 0.00
O=C(COc1ccc(Cl)c(F)c1)NCC1CCN(NC(=O)c2cc3cc(Cl)ccc3o2)C1 (centres unmarked) [Compound 12, 5-chloro-N-(3-((2-(4-chloro-3-fluorophenoxy)acetamido)methyl)pyrrolidin-1-yl)benzofuran-2-carboxamide] | 0.00358 | 97.7 | 13
O=C(COc1ccc(Cl)c(F)c1)NC1CCN(CCCOc2ccc(Cl)c(F)c2)C1 (centres unmarked) [Compound 100, 2-(4-chloro-3-fluorophenoxy)-N-(1-(3-(4-chloro-3-fluorophenoxy)propyl)pyrrolidin-3-yl)acetamide] | > 0.1 | 69.1 | 0.00
O=C(COc1ccc(Cl)c(F)c1)NCC1CCC(NC(=O)COc2ccc(Cl)c(F)c2)C1 (centres unmarked) [Compound 84, 2-(4-chloro-3-fluorophenoxy)-N-((3-(2-(4-chloro-3-fluorophenoxy)acetamido)cyclopentyl)methyl)acetamide] | > 0.1 | 80.3 | –
